Residue numbers refer to the chain shown, from its start.
Assays:
KCNJ3/KCNJ5^L168R = biological target: T1, KCNJ3/KCNJ5^L168R (Homo sapiens, UniProt P48544, L168R); assay: Perforated whole-cell patch clamp, KCNJ3/KCNJ5^L168R heterotetramers in HEK293T cells; assay type: cell-based; settings: 1 mM BaCl2, after 20 μM roxithromycin
T1 construct: GFP; expressed in transfected cells; host or cells: HEK293T (American Type Culture Collection), transient co-transfection
T1 sequence (P48544 1-419 L168R): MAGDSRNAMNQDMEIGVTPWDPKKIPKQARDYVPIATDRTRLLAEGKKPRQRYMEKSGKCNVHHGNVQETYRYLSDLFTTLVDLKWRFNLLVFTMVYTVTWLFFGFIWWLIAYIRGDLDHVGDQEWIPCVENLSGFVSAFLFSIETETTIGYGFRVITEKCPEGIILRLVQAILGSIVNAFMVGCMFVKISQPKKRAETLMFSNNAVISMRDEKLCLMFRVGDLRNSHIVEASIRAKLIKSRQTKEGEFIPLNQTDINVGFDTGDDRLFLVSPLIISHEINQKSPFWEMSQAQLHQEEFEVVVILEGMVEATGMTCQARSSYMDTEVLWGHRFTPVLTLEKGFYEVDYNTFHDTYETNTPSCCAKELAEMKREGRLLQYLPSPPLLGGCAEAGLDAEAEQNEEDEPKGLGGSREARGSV
T1 sequence (P48549 1-501 partner): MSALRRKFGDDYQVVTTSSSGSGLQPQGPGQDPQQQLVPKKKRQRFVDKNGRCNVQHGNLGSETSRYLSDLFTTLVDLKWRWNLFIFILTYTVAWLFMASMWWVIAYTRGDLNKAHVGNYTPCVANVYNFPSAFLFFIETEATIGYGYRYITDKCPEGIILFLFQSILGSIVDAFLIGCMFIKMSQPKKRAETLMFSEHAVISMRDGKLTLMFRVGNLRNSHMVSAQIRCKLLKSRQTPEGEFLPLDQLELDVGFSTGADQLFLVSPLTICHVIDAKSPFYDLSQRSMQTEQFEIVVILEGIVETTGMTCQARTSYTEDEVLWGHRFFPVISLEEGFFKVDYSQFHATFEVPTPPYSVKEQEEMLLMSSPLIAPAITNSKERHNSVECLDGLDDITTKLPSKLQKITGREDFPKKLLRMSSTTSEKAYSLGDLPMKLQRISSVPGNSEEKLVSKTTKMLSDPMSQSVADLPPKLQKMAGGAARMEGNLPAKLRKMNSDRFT
Description: (§1) HEK293T cells (American Type Culture Collection) were used for transient expression of GFP-tagged KCNJ5 or KCNJ3. The cells were grown in Dulbecco's modified Eagle medium (DMEM; Invitrogen) supplemented with 10% FBS (Invitrogen) in 5% CO2 and 95% air at 37° C. Cells were grown to 50-70% confluence for transfection, and the corresponding cDNAs (Choi et al., 2011, Science 331:768-772) were simultaneously applied to the cells using TurboFect transfection reagent according to the manufacturer's protocol (Fermentas). […]
(§2) Within 24 hr after transfection, the cells were treated with trypsin-containing medium (TrypLE Express) (Gibco) for 10 minutes to detach the cells. […] Fluorescence signal (an indication of positive transfection) was detected with an intensified video imaging system including a SIT 68 camera (Long Island Industries). […] After forming a high resistance seal (>2 GΩ), the membrane capacitance was monitored until the whole-cell patch configuration was formed. The cell membrane capacitance was measured and compensated. The K/cation currents were measured from −80 mV to 20 mV with 20 mV steps by an Axon 200A patch-clamp amplifier. The currents were low-pass filtered at 1 KHz and digitized by an Axon interface (Digidata 1200) and were analyzed using the pClamp software system 9 (Axon). […]

KCNJ3/KCNJ5^WT = biological target: T2, KCNJ3/KCNJ5^WT (Homo sapiens, UniProt P48544); assay: Perforated whole-cell patch clamp, KCNJ3/KCNJ5^WT heterotetramers in HEK293T cells; assay type: cell-based; settings: 1 mM BaCl2
T2 construct: GFP; expressed in transfected cells; host or cells: HEK293T (American Type Culture Collection), transient co-transfection
T2 sequence (P48544 1-419): T1 sequence (P48544 1-419 L168R) with R168L
T2 sequence (P48549 1-501 partner): T1 sequence (P48549 1-501 partner)
Description: as §1, §2

[1] = in vivo; cited from earlier work
KCNJ5^G151R = biological target: T3, KCNJ5^G151R (Homo sapiens, UniProt P48544, G151R); assay: cell-based; assay type: cell-based
T3 construct: expressed in transfected cells
T3 sequence (P48544 1-419 G151R): T1 sequence (P48544 1-419 L168R) with G151R, R168L
Summary of the method: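 Viability is read as cellular ATP by CellTiter-Glo luminescence 72 h later at 37 °C. Uninduced and induced untreated cells set 100% and 0% effect; curves use a 4-parameter logistic fit.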

KCNJ5^L168R = biological target: T4, KCNJ5^L168R (Homo sapiens, UniProt P48544, L168R); assay: Cell viability assay (ATP, CellTiter-Glo): rescue of KCNJ5^L168R-induced lethality in inducible HEK293 cells; assay type: cell-based
T4 construct: expressed in transfected cells
T4 sequence (P48544 1-419 L168R): T1 sequence (P48544 1-419 L168R)
Description: (§3) WT or mutant human KCNJ5 cDNAs (Choi et al., 2011, Science 331:768-772) were subcloned into the pcDNA5/FRT/TO vector using BamHI and HindIII. Single copies of WT or mutant human KCNJ5 cDNAs expressed under the control of tetracycline-inducible promoter were introduced into HEK293 cells using the Flp-in T-Rex System (Invitrogen) according to the manufacturer's instructions. Cells were grown in selective media containing 10% Tet-system approved FBS (Clontech) until induction.
Assay plates were centrifuged and incubated overnight at 37° C. 20 nL was transferred from the compound source plate to the cell assay plate using an Aquarius (Tecan) with a 384-well pin tool (V&P Scientific). The final concentration of compound for screening was 10 μM and the final DMSO concentration was 0.1%. 1 μL of tetracycline (final concentration 1 μg/mL) was added to compound containing and negative control wells by Multidrop Combi to induce expression. 1 μL of media was added to positive control wells. Assay plates were centrifuged and incubated for 72 hours at 37° C., 5% CO2. CellTiter-Glo (Promega) was used to measure cell viability in the assay wells according to the manufacturer's instructions. 10 μL/well of CellTiter-Glo reagent was added to the assay plates using a MultiDrop Combi. The plates were shaken on a Thermomixer R (Eppendorf) at 1100 rpm for 1 minute and incubated in the dark for 10 minutes at room temperature. Luminescence was read on an Envision plate reader (PerkinElmer) with 0.3 second sampling time per well. Raw data (luminescence counts per second) was normalized to percent effect by the formula 100−(((sample−negative control mean)/(positive control mean−negative control mean))*100).
Data was analyzed using the programs Excel (Microsoft) and Prism (GraphPad). Errors are SD unless otherwise indicated in the legend. Dose-response curves were fitted with a four-parameter logistic equation: F(x)=D+(A−D)/(1+(x/C)^B), with A=minimum inhibition B=Hill's slope C=inflection point D=maximum inhibition Synthesis of Macrolide Derivatives
Cellular ATP levels were measured as a proxy for cell viability, using a commercially available luciferase assay (Crouch et al., 1993, Proc. Natl. Acad. Sci. U.S.A. 109:2533-2538).
Conditions were designed to maximize reproducibility and the signal-to-background ratios (S/B) (Zhang et al., 1999, J. Biomol. Screen 4:67-73) comparing ATP level in uninduced and induced cells. Screening was performed in 384-well plates; compounds were added 24 hours after plating, and channel expression was induced immediately after compound addition. ATP levels were measured 72 hours after induction.

KCNJ5^WT = biological target: T5, KCNJ5^WT (Homo sapiens, UniProt P48544); assay: Membrane potential assay (FLIPR dye) in inducible KCNJ5^WT HEK293 cells; assay type: cell-based
T5 construct: expressed in transfected cells
T5 sequence (P48544 1-419): T1 sequence (P48544 1-419 L168R) with R168L
Description: as §3, with “Single” for “WT or mutant human KCNJ5 cDNAs (Choi et al., 2011, Science 331:768-772) were subcloned into the pcDNA5/FRT/TO vector using BamHI and HindIII. Single”
20 μL of WT cells were plated into sterile black with clear bottom tissue culture-treated 384-well plates (Corning) at a density of 10000 cells/well using a Multidrop Combi. Assay plates were centrifuged at 500 rpm for 10 seconds and incubated overnight at 37° C. in a humidified 5% CO2 incubator. After the overnight incubation, 1 μL of tetracycline (final conc. 1 μg/mL) was added to all wells by Multidrop Combi to induce KCNJ5. Assay plates were centrifuged at 500 rpm for 10 seconds and incubated overnight at 37° C. in a humidified 5% CO2 incubator. The next day, 10 μL of medium was removed from each well using a PlateMate Plus (Thermo Scientific). 10 μL of Blue Formula FLIPR membrane potential dye (Molecular Devices) was added to cells using a Multichannel pipettor. Assay plates were incubated for 30 minutes. at 37° C. After incubation, 20 nL was transferred twice from the compound source plate to the cell assay plate using an Aquarius with a 384-well pin tool for a total transfer volume of 40 nL and a final DMSO concentration of 0.2%. 1 μL of 20 mM BaCl2 was added to positive control wells using a Multichannel pipettor. The assay plate was incubated 20 minutes at room temperature in the dark.
Changes in membrane potential were detected using a well-established fluorescence-based measure of membrane potential (FIG. 4).

[2] = 10-point dilution 20 to 0.0391 μM, N=3, four-parameter fit
[3] = tested as in FIG. 7 (FIGS. 9 and 10)

## [Ba+2].[Cl-].[Cl-] [barium, BaCl2]
KCNJ3/KCNJ5^L168R
  block of remaining KCNJ3/KCNJ5^L168R current: blocked
KCNJ3/KCNJ5^WT
  barium sensitivity of KCNJ3/KCNJ5^WT currents: sensitive

## C[C@]12CCC(=O)C=C1CC[C@@H]1[C@@H]2[C@@H](O)C[C@]2(C=O)[C@@H](C(=O)CO)CC[C@@H]12 [aldosterone]
[1]
  plasma half-life: ~30 min

## CC[C@H]1OC(=O)[C@H](C)[C@@H](O[C@H]2C[C@@](C)(OC)[C@@H](O)[C@H](C)O2)[C@H](C)[C@@H](O[C@@H]2O[C@H](C)C[C@H](N(C)C)[C@H]2O)[C@](C)(O)C[C@@H](C)C(=NO)[C@H](C)[C@@H](O)[C@]1(C)O [Erythromycin A Oxime, erythromycin A oxime]
KCNJ5^G151R; [2]
  G151R maximum inhibition: 84.11%
  G151R minimum inhibition: 2.49%
  IC50: 2.88 µM
KCNJ5^L168R; [2]
  IC50: 8.13 µM
  L168R maximum inhibition: 60.00%
  L168R minimum inhibition: 0.65%
KCNJ5^L168R; tested at 1.1, 3.3 and 10 μM
  dose response on KCNJ5^L168R: showed a dose response
KCNJ5^WT; [2]
  WT IC50: No fit

## N-demethyl-8,9-anhydroerythromycin A 6,9-hemiacetal [PLUX36]
KCNJ5^G151R; [3]
  inhibition of KCNJ5^G151R by synthesized macrolide derivatives: significant inhibition
KCNJ5^L168R; [3]
  inhibition of KCNJ5^L168R by synthesized macrolide derivatives: significant inhibition
KCNJ5^WT; [3]
  inhibition of KCNJ5^WT by synthesized macrolide derivatives: no inhibition

Source: patent publication US11484543B2, “Compositions and methods for diagnosing and treating diseases and disorders associated with mutant KCNJ5” (The Rockefeller University, priority 2017, dated 2022)
